Assay results: patent US20240368212A1, “SELECTIVE ISONITRILE INHIBITORS OF CYTOCHROME P450 SUBTYPES” (priority 2021, published 2024)
“Also recorded” adds a separate entry of the source. Like-named read-outs stand apart in the source and are kept apart here.

Assays:
CYP17A1 [1] = biological target: T1, CYP17A1 (Homo sapiens, UniProt P05093); experiment: Ligand binding assay, UV-visible difference spectra titration; settings: for spectroscopic evidence of binding to CYP17A1 (heme spectral shift): result in words
T1 sequence (P05093 1-508): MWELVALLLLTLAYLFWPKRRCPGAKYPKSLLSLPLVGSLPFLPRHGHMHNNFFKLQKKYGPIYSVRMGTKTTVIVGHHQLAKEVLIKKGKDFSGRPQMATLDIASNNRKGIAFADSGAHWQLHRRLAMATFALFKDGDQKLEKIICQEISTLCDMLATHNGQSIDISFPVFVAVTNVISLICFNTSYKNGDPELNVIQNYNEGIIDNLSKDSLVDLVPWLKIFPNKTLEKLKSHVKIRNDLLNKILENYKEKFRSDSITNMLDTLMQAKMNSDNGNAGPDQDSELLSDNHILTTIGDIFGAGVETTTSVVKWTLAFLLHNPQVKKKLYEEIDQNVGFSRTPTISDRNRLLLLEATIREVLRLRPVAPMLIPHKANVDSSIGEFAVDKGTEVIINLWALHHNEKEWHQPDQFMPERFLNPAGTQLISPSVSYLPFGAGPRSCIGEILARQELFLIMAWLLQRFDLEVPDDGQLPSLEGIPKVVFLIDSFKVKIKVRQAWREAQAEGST
Method: Ligand binding assays. (Adapted from DeVore, N M, et al. (2009). Drug Metabolism and Disposition, 37(6), 1319-1327.) Ligand interaction with the heme iron was evaluated by titrating ligands into a cuvette containing purified CYP17A1, CYP2D6, or CYP3A4 and measured using a UV-visible scanning spectrophotometer. […] Ligands dissolved in DMSO were added to the sample cuvette and an equal volume of DMSO to the reference cuvette. Difference spectra were recorded from 300-500 nm after equilibration of enzyme and ligand. Binding to the enzyme was measured as the difference in maximal and minimal absorbance: A387-A419 for pregnanolone and 3-formyl pregnanolone, and A435-A393 for 3-formyl pregnanolone-20-isonitrile with CYP17A1; A434-A414 for 3-formyl pregnanolone-20-isonitrile with CYP3A4 and CYP2D6. […] All data fitting was accomplished using GraphPad Prism 9.

CYP106A2 = CYP106A2 (Priestia megaterium, UniProt Q06069); experiment: Optical difference spectrum titration of CYP106A2; format: binding, bacterial; settings: result in words
From the text: FIGS. 3A-3C show the optical difference spectra when various compounds are titrated with CYPs. […] The maximum absorbance was at 430 nm and the trough was at 393 nm. […] The trough was at 418 nm.
Ligand binding assays. […] All data fitting was accomplished using GraphPad Prism 9.

CYP17A1 [2] = biological target: T2, CYP17A1 (Homo sapiens, UniProt P05093); experiment: Inhibition assay, 17α-hydroxylation of progesterone by CYP17A1; format: biochemical
T2 sequence (P05093 24-508 limits assumed): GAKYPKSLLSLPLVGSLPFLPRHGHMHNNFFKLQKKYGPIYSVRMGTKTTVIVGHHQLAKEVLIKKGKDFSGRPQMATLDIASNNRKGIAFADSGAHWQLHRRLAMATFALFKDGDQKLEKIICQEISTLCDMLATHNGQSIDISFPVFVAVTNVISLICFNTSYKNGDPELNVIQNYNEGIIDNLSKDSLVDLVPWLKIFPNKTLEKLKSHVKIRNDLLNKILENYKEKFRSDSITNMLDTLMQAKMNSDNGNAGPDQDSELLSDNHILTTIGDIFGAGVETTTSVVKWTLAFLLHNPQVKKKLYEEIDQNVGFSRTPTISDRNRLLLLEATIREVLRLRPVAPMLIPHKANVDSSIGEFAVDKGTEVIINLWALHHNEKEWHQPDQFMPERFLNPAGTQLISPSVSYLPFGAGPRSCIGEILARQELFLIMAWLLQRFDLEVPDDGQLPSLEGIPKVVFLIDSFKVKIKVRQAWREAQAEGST
Method: (Adapted from DeVore, NM, Scott, EE. (2012). Nature, 482(7383), 116-119.) Metabolic activity of CYP17A1 was evaluated by measuring 17α-hydroxylation of progesterone as detected HPLC with UV detection at 240 nm. A 1:4 ratio of CYP17A1 to recombinant NADPH-cytochrome P450 reductase was mixed and incubated on ice for 20 minutes. […] Reaction vials were warmed to 37° C. for three minutes, then catalysis was initiated by adding NADPH to a final concentration of 1 mM. After 10 minutes, metabolism was quenched by adding 300 μL of 20% trichloroacetic acid and placed on ice. The reaction vials were centrifuged to pellet the precipitated protein, then the supernatant was injected onto a C18 column (Phenomenex, Luna, 50×4.6 mm) for HPLC. The 30-minute HPLC method ran at 0.8 m/min and started with a mobile phase of 60% acetonitrile, 40% water with 0.2% acetic acid for five minutes, increased to 80% acetonitrile over 10 minutes, held at 80% acetonitrile for five minutes, 100% acetonitrile for five minutes, then returned to 60% acetonitrile to prepare for the next sample. Metabolite elution was normalized to β-estradiol as an internal standard. A standard curve of known product concentrations was used to convert normalized area under curve to amount of product produced. […]

CYP106A2, sequence (Q06069 whole entry): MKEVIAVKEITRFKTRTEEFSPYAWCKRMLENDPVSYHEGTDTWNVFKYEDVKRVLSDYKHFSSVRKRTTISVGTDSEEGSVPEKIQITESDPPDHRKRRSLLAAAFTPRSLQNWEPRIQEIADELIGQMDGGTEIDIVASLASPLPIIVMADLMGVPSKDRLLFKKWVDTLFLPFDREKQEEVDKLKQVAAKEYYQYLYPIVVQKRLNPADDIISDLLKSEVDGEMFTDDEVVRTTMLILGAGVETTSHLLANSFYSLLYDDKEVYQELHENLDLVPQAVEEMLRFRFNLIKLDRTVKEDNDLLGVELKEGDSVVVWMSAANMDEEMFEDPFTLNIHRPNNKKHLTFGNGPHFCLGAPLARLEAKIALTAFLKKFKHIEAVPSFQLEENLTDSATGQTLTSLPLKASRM

In the case of “3β-formyl-(R)-(20-isonitrilo)pregnane [20-(R)-16]”, the “spectroscopic evidence of binding to CYP17A1 (heme spectral shift)” value (CYP17A1 [1]) is reported as “binds tightly”, the “spectroscopic evidence of binding to CYP106A2 (Fe—CN—R bond formation)” value (CYP106A2) is reported as “no evidence for formation of a Fe—CN—R bonded complex” and the “spectroscopic evidence of binding to CYP106A2 (Fe—CN—R bond formation)” value (CYP106A2; listed as 3) is reported as “no evidence of binding”.
In the case of `[C-]#[N+][C@H](C)[C@H]1CC[C@H]2[C@@H]3CC[C@H]4C[C@@H](OC=O)CC[C@]4(C)[C@H]3CC[C@]12C` [Compound 16], the Kd (CYP17A1 [1]) is reported as less than 100 nM, the “spectroscopic evidence of binding to CYP17A1 (heme spectral shift)” value (CYP17A1 [1]) is reported as “induced the expected heme spectral shift from 417 to 428 nm; also recorded: bound to CYP17A1; also recorded: bind very tightly” and the IC50 (CYP17A1 [2]; CYP17A1 progesterone hydroxylation, 11.5 μM progesterone) is reported as 1300 nM. The “inhibition of CYP17A1 progesterone hydroxylation” value (CYP17A1 [2]; result in words, FIG. 5B) was “inhibited”.
`C[C@]12CC[C@H](O)CC1=CC[C@@H]1[C@@H]2CC[C@]2(C)C(c3cccnc3)=CC[C@@H]12` [abiraterone, reference compound] gave a Kd (CYP17A1 [1]; CYP17A1 0.2 μM, tight binding, only estimates, read-out: Kd) of less than 100 nM.
